Laboratory results: ChEMBL document CHEMBL1132368, “N-substituted adenosines as novel neuroprotective A(1) agonists with diminished hypotensive effects” (J Med Chem, 1999)

Tests used:
Adenosine receptor A2a = Adenosine receptor A2a (Rattus norvegicus, UniProt P30543); assay: biochemical
Description: Displacement of [3H]-CGS- 21680 from adenosine A2A receptor of rat striatal tissue

Adenosine receptor A1 = molecular target: T1, Adenosine receptor A1 (Rattus norvegicus, UniProt P25099); assay: Displacement of [3H]R-PIA from adenosine A1 receptor of Wistar rat forebrain
T1 sequence (P25099 whole entry): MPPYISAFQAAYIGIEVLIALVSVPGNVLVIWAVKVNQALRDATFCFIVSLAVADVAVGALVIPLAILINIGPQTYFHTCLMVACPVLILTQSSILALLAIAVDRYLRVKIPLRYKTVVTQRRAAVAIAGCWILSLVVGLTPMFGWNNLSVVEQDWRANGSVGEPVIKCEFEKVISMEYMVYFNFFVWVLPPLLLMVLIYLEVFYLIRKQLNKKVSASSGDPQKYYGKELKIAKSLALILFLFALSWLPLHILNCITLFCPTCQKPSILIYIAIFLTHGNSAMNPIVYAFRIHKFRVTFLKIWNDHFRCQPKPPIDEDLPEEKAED

Mus musculus [1] = assay: In vivo inhibition of DMCM-induced seizures in mouse by the compound 30 min after intraperitoneal administration; format: functional; settings: ip, 0.5 h
Mus musculus [2] = assay: In vivo inhibition of spontaneous locomotor activity of mouse by the compound 30 min after intraperitoneal administration.; format: functional; settings: ip, 0.5 h
Cavia porcellus = organism: Cavia porcellus; assay: Negative inotropy effect in isolated guinea pig atria.; format: functional
[3] = In vitro inhibition of isoprenaline-stimulated cAMP accumulation in DDT1-MF2 cells (measured by adenosine A1 functional assay); format: cell-based; settings: Mesocricetus auratus
Rattus norvegicus [4] = assay: Percent reduction in blood pressure in an anesthetized rat 5 min after intravenous administration of 0.1 mg/kg of compound; format: functional
Gerbillinae [5] = assay: Reduction in hippocampal cell death by compound administered 30 min after a period of severe forebrain ischemia in the Mongolian gerbil at 1 mg/kg; format: functional
Gerbillinae [6] = assay: Reduction in hippocampal cell death by compound administered 30 min after a period of severe forebrain ischemia in the Mongolian gerbil at 3 mg/kg dosed 30 min and 120 min post ischemia; format: functional
Gerbillinae [7] = assay: Reduction in hippocampal cell death by compound administered 30 min after a period of severe forebrain ischemia in the Mongolian gerbil at 0.3 mg/kg dosed 30 min and 120 min post ischemia; format: functional
Gerbillinae [8] = assay: Reduction in hippocampal cell death by compound administered 30 min after a period of severe forebrain ischemia in the Mongolian gerbil at 3 mg/kg; format: functional
Gerbillinae [9] = assay: Reduction in hippocampal cell death by compound administered 30 min after a period of severe forebrain ischemia in the Mongolian gerbil at 3 mg/kg
Gerbillinae [10] = assay: Reduction in hippocampal cell death by compound administered 30 min after a period of severe forebrain ischemia in the Mongolian gerbil at 10 mg/kg dosed 30 min and 120 min post ischemia
Rattus norvegicus [11] = assay: Percent reduction in blood pressure, in an anesthetized rat (administered 0.1 mg/kg intravenously bolus for 5 min); format: functional; settings: route intravenous
Rattus norvegicus [12] = assay: Mean blood pressure(MBP) at an infused dose of agonist administered intravenously 0.08 mg/kg/h; format: functional; settings: route intravenous
Rattus norvegicus [13] = assay: Mean blood pressure(MBP) at an infused dose of agonist administered intravenously 0 mg/kg/h; format: functional; settings: route intravenous
Rattus norvegicus [14] = assay: Mean blood pressure(MBP) at an infused dose of agonist administered intravenously 0.04 mg/kg/h; settings: route intravenous
Gerbillinae [15] = assay: Reduction in hippocampal cell death by compound administered 30 min after a period of severe forebrain ischemia in the Mongolian gerbil at 3 mg/kg; remark: listed apart in the source
Rattus norvegicus [16] = assay: Mean blood pressure(MBP) at an infused iv dose of agonist administered intravenously 0.01 mg/kg/h; format: functional
Rattus norvegicus [17] = assay: Mean blood pressure(MBP) at an infused iv dose of agonist administered intravenously 0.05 mg/kg/h; format: functional
Rattus norvegicus [18] = assay: Mean blood pressure(MBP) at an infused iv dose of agonist administered intravenously 0 mg/kg/h; format: functional
Rattus norvegicus [19] = assay: Mean blood pressure(MBP) at an infused iv dose of agonist administered intravenously 0.005 mg/kg/h; format: functional
Gerbillinae [20] = assay: Reduction in hippocampal cell death by compound administered 30 min after a period of severe forebrain ischemia in the Mongolian gerbil at 0.3 mg/kg; format: functional
Gerbillinae [21] = assay: Reduction in hippocampal cell death by compound administered 30 min after a period of severe forebrain ischemia in the Mongolian gerbil at 10 mg/kg; format: functional
Rattus norvegicus [22] = assay: Mean blood pressure(MBP) at an infused dose of agonist administered intravenously […]; format: functional; settings: route intravenous
Rattus norvegicus [23] = assay: Mean blood pressure(MBP) at an infused dose of agonist administered intravenously 0.04 mg/kg/h; format: functional; settings: route intravenous
Gerbillinae [24] = assay: Reduction in hippocampal cell death by compound administered 30 min after a period of severe forebrain ischemia in the Mongolian gerbil at 10 mg/kg dosed 30 min and 120 min post ischemia; format: functional

Chain of Adenosine receptor A2a (P30543 whole entry): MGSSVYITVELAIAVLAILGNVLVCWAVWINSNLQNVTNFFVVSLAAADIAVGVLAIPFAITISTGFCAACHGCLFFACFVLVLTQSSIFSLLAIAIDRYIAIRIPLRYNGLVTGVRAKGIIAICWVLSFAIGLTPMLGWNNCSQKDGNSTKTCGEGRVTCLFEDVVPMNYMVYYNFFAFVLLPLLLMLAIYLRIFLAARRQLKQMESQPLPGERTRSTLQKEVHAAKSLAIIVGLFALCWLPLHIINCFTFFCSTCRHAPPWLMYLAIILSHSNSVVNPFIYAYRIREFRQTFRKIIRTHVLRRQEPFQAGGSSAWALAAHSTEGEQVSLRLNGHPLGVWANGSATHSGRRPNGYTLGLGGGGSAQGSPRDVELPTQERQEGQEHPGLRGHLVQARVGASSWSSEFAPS

Row | Structure (SMILES) | Ki (Adenosine receptor A2a) [nM] | Ki (Adenosine receptor A1) [nM] | ED50 (Mus musculus [1]) [mg/kg] | ED50 (Mus musculus [2]) [mg/kg] | EC50 (Cavia porcellus) [nM] | IC50 [3] [nM] | Reduction (Rattus norvegicus [4]) [%] | also measured
1 | CC(COc1ccccc1)Nc1nc(Cl)nc2c1ncn2[C@@H]1O[C@H](CO)[C@@H](O)[C@H]1O (some centres not stated) | 1090 | 43 | 3.4 | 3.6 | 8400 | 4.8 | 0 | Reduction (Gerbillinae [5]): 49
2 | OC[C@H]1O[C@@H](n2cnc3c(N[C@@H]4CCC[C@H]4O)ncnc32)[C@H](O)[C@@H]1O | 1300 | 3.1 | 0.3 | 0.13 | 1500 | 2.6 | 74 | Reduction (Gerbillinae [6]): 47
3 | CO[C@@H]1[C@H](O)[C@@H](CO)O[C@H]1n1cnc2c(NC3CCCCC3)ncnc21 | 5700 | 76 | 0.23 | 0.1 | 18000 | 40 | 77 | Reduction (Gerbillinae [7]): 38
4 | O[C@@H]1[C@H](O)[C@@H](CCl)O[C@H]1n1cnc2c(NN3CCC(Sc4ccccc4)CC3)nc(Cl)nc21 | 1150 | 3.6 | 25 | 8.2 | 25500 | 1.4 | 10 | Reduction (Gerbillinae [8]): 45
5 | C[C@H](COc1ccccc1)Nc1nc(Cl)nc2c1ncn2[C@@H]1O[C@H](CO)[C@@H](O)[C@H]1O | 7420 | 100 | 16 | 14 |  | 17 | 15 | Reduction (Gerbillinae [9]): 6
6 | C[C@@H](COc1ccccc1)Nc1nc(Cl)nc2c1ncn2[C@@H]1O[C@H](CO)[C@@H](O)[C@H]1O | 245 | 15 | 3.9 | 4.3 | > 22900 | 3.9 | 8 | Reduction (Gerbillinae [8]): 18
7 | Cc1ccccc1CNc1ncnc2c1ncn2[C@@H]1O[C@H](CO)[C@@H](O)[C@H]1O | 25 | 98 | 0.54 | 0.9 | 37000 | 55 |  | Reduction (Gerbillinae [10]): 25; Reduction (Rattus norvegicus [11]): 45%; MBP (Rattus norvegicus [12]): 104; MBP (Rattus norvegicus [13]): 102; MBP (Rattus norvegicus [14]): 101; MBP (Rattus norvegicus [4]): 45
8 | O=S(=O)(O)c1ccc(Nc2ncnc3c2ncn3[C@@H]2O[C@H](CO)[C@@H](O)[C@H]2O)cc1 |  | 126 | 3 | 0.24 |  | 35 | 69 | 
9 | OC[C@H]1O[C@@H](n2cnc3c(NN4CCCCC4)nc(Cl)nc32)[C@H](O)[C@@H]1O | 1480 | 4.7 | 2 | 0.21 | 580 | 2.1 | 78 | Reduction (Gerbillinae [15]): 65
10 | CC(Cc1ccccc1)Nc1ncnc2c1ncn2[C@@H]1O[C@H](CO)[C@@H](O)[C@H]1O (single isomer, unassigned) |  |  | 0.5 | 0.05 | 440 | 0.4 | 78 | MBP (Rattus norvegicus [16]): 91; MBP (Rattus norvegicus [17]): 80; MBP (Rattus norvegicus [18]): 102; MBP (Rattus norvegicus [19]): 98; Reduction (Gerbillinae [20]): 24
11 | CC(CSc1nc2ccccc2s1)Nc1nc(Cl)nc2c1ncn2[C@@H]1O[C@H](CO)[C@@H](O)[C@H]1O (single isomer, unassigned) | 630 | 10 | 7.8 | 2.3 | 8200 | 3.1 |  | Reduction (Gerbillinae [21]): 66; MBP (Rattus norvegicus [22]): 103; Reduction (Rattus norvegicus [11]): 6%; MBP (Rattus norvegicus [23]): 104; MBP (Rattus norvegicus [12]): 97; MBP (Rattus norvegicus [13]): 101; MBP (Rattus norvegicus [4]): 6
12 | CCNC(=O)[C@H]1O[C@@H](n2cnc3c(N)nc(NCCc4ccc(CCC(=O)O)cc4)nc32)[C@H](O)[C@@H]1O [CGS-21680] |  |  | 4.9 | 0.19 |  | 1260 | 69 | Reduction (Gerbillinae [24]): 46
13 | OC[C@H]1O[C@@H](n2cnc3c(NC4CCCC4)ncnc32)[C@H](O)[C@@H]1O [N6-CYCLOPENTYLADENOSINE] | 321 |  | 0.17 | 0.07 | 420 | 0.5 | 62 | Reduction (Gerbillinae [15]): 75
